Test results taken from patent publication US20240350458A1, “14-3-3 PROTEIN MODULATORS AS ANTITUMOR AGENTS” (priority 2021, published 2024).
Entries after “also recorded” stand apart in the source; their conditions may differ.

Tests used:
[1] = tested on: peripheral blood mononuclear cells (PBMC); assay: Annexin V apoptosis in PBMC from healthy donors (FACS); format: cell-based; conditions: 200 nM, 48 h
Experimental: FC86 was incubated with cells at the concentration of 200 nM for 48 h. Annexin V was detected by flow cytometry (FACS). PBMCs (Peripheral blood mononuclear cells) were not affected by FC86.

[2] = tested on: A2058; assay: Antiproliferative activity, melanoma cell line; format: cell-based; conditions: Homo sapiens; melanoma A2058 (BRAFV600E); read-out: IC50 (95% confidence interval)
Experimental: (§1) The antiproliferative activity was assessed by MTT proliferation assay (Table III) The anticancer activity was also investigated in a rare and lethal cancer (i.e. anaplastic thyroid cancer) by the use of three ATC-derived cell lines (Sw, FRO, 8505c). Again, the IC50 value after 72 h exposure was in the range of 10 to 50 nM. The same trend was also observed in four melanoma cell lines A2058, M14 (genotype BRAFV600E), SKMEL 197 e MEWO (genotype BRAF wild-type).

[3] = tested on: MEWO; assay: Antiproliferative activity, melanoma cell line; format: cell-based; conditions: Homo sapiens; melanoma MEWO (BRAF wild-type); read-out: IC50 (95% confidence interval)
Experimental: as §1

[4] = tested on: M14; assay: Antiproliferative activity, melanoma cell line; format: cell-based; conditions: Homo sapiens; melanoma M14 (BRAFV600E); read-out: IC50 (95% confidence interval)
Experimental: as §1

[5] = tested on: SKMEL 197; assay: Antiproliferative activity, melanoma cell line; format: cell-based; conditions: melanoma SKMEL 197 (BRAF wild-type); read-out: IC50 (95% confidence interval)
Experimental: as §1

[6] = tested on: 410 human kinases; assay: ProQinase kinase profiling; format: biochemical; conditions: at 1 and 0.1 μM
[7] = tested on: TC-32; assay: MTT proliferation assay, Ewing sarcoma; format: cell-based; conditions: Homo sapiens
Experimental: as §1
(§2) Table III IC50 expressed in μM and Emax (at 30 μM) for FC86 after 72 h exposure, were calculated by MTT assay

[8] = tested on: 6647; assay: MTT proliferation assay, Ewing sarcoma; format: cell-based
Experimental: as §1, §2

[9] = tested on: A673; assay: MTT proliferation assay, Ewing sarcoma; format: cell-based; conditions: Homo sapiens
Experimental: as §1, §2

[10] = tested on: TC-71; assay: MTT proliferation assay, Ewing sarcoma; format: cell-based
Experimental: as §1, §2

[11] = tested on: SKNMC; assay: MTT proliferation assay, Ewing sarcoma; format: cell-based; conditions: Homo sapiens, SK-N-MC, 72 h exposure
Experimental: as §1, §2

[12] = tested on: CYP450 (CYP1A2, CYP2C9, CYP2C19, CYP2D6, CYP3A4); assay: CYP450 inhibition (ADME-TOX profiling); format: in vitro ADME; conditions: 10 μM
Experimental: To assess the ADME-TOX profile of selected compounds (FC91, FC86, FC85, a full panel of in vitro assays was performed as reported in Runfola et al. [Runfola M, Sestito S, Gul S, Chiellini G, Rapposelli S: Collecting data through high throughput in vitro early toxicity and off-target liability assays to rapidly identify limitations of novel thyromimetics. Data in brief 2020, 29:105206.]. Cytotoxic effects were evaluated on 4 different cell lines (U2OS, hTERT, HEK293, MCF-7) at 24 h and 48 h after treatment with tested compounds. Cardiac toxicity was assessed evaluating the inhibition effect of compounds on the hERG ion-channel, which is responsible of the withdrawn of several drugs in clinical trials. Metabolic interference was evaluated testing inhibitory effects of new compounds on five isoforms of CYP450 (CYP1A2, CYP2C9, CYP2C19, CYP2D6, CYP3A4). To assess off-target liabilities, the inhibitory effects have been assessed against several well-known off-targets. In particular, HDAC4, HDAC6, HDAC8, HDAC9, and SIRT7 were chosen as representatives of an undesirable epigenetic modulation. Moreover, compounds were screened against phosphodiesterase (PDE4C1), known for its role in cell survival and tumorigenesis. […] The data were collected and analyzed in the form of a traffic-light system using criteria shown below.

[13] = tested on: healthy human thyroid cells; assay: Toxicity in healthy human thyroid cells (trypan blue staining); format: cell-based; conditions: 72 h
Experimental: FRTL5 were assayed with MTT, while healthy human thyroid cells by trypan blue staining. The percentage of dead cells, as counted after trypan blue staining, was around 10-15% at the dose of 800 nM of FC86.
To assess the toxicity FC86 was evaluated against a primary healthy human thyroid cell line at concentrations ranging from 3 nM to 800 nM for 72 h (FIG. 3). Data collected reveal that FC86 is not toxic for healthy human thyroid cells at concentration […] 400 nM. Such a concentration is 20× fold higher than IC50 detected in tumour cell lines.

[14] = tested on: NCI-H69; assay: MTT proliferation assay, SCLC; format: cell-based; conditions: Homo sapiens
Experimental: as §1, §2

[15] = tested on: NCI-H82; assay: MTT proliferation assay, SCLC; format: cell-based; conditions: Homo sapiens
Experimental: as §1, §2

[16] = tested on: eight B-cell lymphoma cell lines; assay: MTT proliferation assay, panel of eight B-cell lymphoma cell lines; format: cell-based
Experimental: All the above compounds were tested in vitro for their anticancer activity against a panel of eight B-cell lymphoma cell lines by MTT proliferation assay. The tested cell lines belonging to mantle cell lymphoma (MCL: REC1, Z138), activated B-cell diffuse large B-cell lymphoma (ABC-DLBCL: R11, HBL1, U2932, TMD8), germinal center B-cell diffuse large B-cell lymphoma (GCB-DLBCL: SU-DHL-10, FARAGE) subtypes. In overall, MCL cell lines present Cyclin D1 overexpression, while ABC- and GCB-DLBCL's proliferation is BCR and BCL6/HDACs driven, respectively. At the RNA level, all tested lymphoma cell lines were characterized by an overexpression of 14-3-3 zeta as reported for B-cell lymphomas resistant to chemotherapeutic regimen.

[17] = tested on: HCT-116; assay: MTT proliferation assay, colon cancer; format: cell-based; conditions: Homo sapiens
Experimental: as §1, §2

Question: How did the “apoptosis (Annexin V) in PBMC” value [1] turn out when `Cc1ccc(S(=O)(=O)Nc2ccc3c(c2)/C(=C/c2cccs2)C(=O)N3)cc1` [FC86, N-[(3Z)-2-oxo-3-(thiophene-2-ylmethylidene)-2,3-dihydro-1H-indol-5-yl]-4-methylbenzenesulfonamide] was run?
Answer: The value was “did not detect any sign of apoptosis; also recorded: not affected”.

Question: What about the IC50 [2] of the same molecule?
Answer: The IC50 was 28.6 nM.

Question: And the IC50 [3]?
Answer: Its IC50 is 57 nM.

Question: And the IC50 [4]?
Answer: Its IC50 is 14.1 nM.

Question: What about the IC50 [5] of the same molecule?
Answer: Its IC50 is 20.7 nM.

Question: And the “activity against 410 human kinases” value [6]?
Answer: The value was “lack of activity against any of them”.

Question: What about the Emax at 30 µM ([7]; Ewing Sarcoma TC-32, 30 μM, 72 h) of the same molecule?
Answer: Its Emax at 30 µM is 75%.

Question: And the IC50 ([7]; Ewing Sarcoma TC-32, 72 h exposure)?
Answer: Its IC50 is 30 nM.

Question: What about the Emax at 30 µM ([8]; Ewing Sarcoma 6647, 30 μM, 72 h) of the same molecule?
Answer: The Emax at 30 µM was 75%.

Question: What about the IC50 ([8]; Ewing Sarcoma 6647, 72 h exposure) of the same molecule?
Answer: Its IC50 is 90 nM.

Question: And the Emax at 30 µM ([9]; Ewing Sarcoma A673, 30 μM, 72 h)?
Answer: Its Emax at 30 µM is 85%.

Question: And the IC50 ([9]; Ewing Sarcoma A673, 72 h exposure)?
Answer: Its IC50 is 3200 nM.

Question: And the Emax at 30 µM ([10]; Ewing Sarcoma TC-71, 30 μM, 72 h)?
Answer: Its Emax at 30 µM is 95%.

Question: And the IC50 ([10]; Ewing Sarcoma TC-71, 72 h exposure)?
Answer: The IC50 was 800 nM.

Question: And the IC50 [11]?
Answer: Its IC50 is greater than 30000 nM.

Question: And the “inhibitory effect on CYP450 isoforms” value [12]?
Answer: The value was “did not show inhibitory effect”.

Question: What about the “toxicity for healthy human thyroid cells” value ([13]; at concentration higher than 400 nM) of the same molecule?
Answer: The value was “not toxic”.

Question: And the “percentage of dead cells (trypan blue staining)” value ([13]; healthy human thyroid cells, 800 nM)?
Answer: The value was 10-15%.

Question: What about the Emax at 30 µM ([14]; SCLC NCI-H69, 30 μM, 72 h) of the same molecule?
Answer: Its Emax at 30 µM is 80%.

Question: And the IC50 ([14]; SCLC NCI-H69, 72 h exposure)?
Answer: The IC50 was 1400 nM.

Question: And the Emax at 30 µM ([15]; SCLC NCI-H82, 30 μM, 72 h)?
Answer: Its Emax at 30 µM is 55%.

Question: What about the IC50 ([15]; SCLC NCI-H82, 72 h exposure) of the same molecule?
Answer: Its IC50 is 3000 nM.

Question: What about the IC50 ([16]; B-cell, read-out: IC50 in all eight lymphoma cell lines) of the same molecule?
Answer: Its IC50 is less than 1000 nM.

Question: And the “IC50 in eight different lymphoma cell lines” value ([16]; eight different lymphoma cell lines)?
Answer: The value was “nanomolar range”.

Question: And the Emax at 30 µM ([17]; Colon HCT-116, 30 μM, 72 h)?
Answer: Its Emax at 30 µM is 62%.

Question: And the IC50 ([17]; Colon HCT-116, 72 h exposure)?
Answer: Its IC50 is 1600 nM.
